Data published in patent US20110014644A1, “METHODS FOR PREDICTING A CANCER PATIENT'S RESPONSE TO ANTIFOLATE CHEMOTHERAPY” (Precision Therapeutics, Inc., priority 2009, published 2011).

Columns and labels:
[1] = test system: primary cultures of NSCLC specimens; experiment: ChemoFx live cell chemoresponse assay on primary cultures of patient lung cancer specimens; format: cell-based, human; conditions: 65 primary cultures, single agent, 72 hours
Description: The ChemoFx™ live cell chemoresponse assay was performed on 65 patient specimens and the cell line A549. The cells were treated with a 10-dose range of pemetrexed for 72 hours before DAPI-nuclear staining and counting. AUC (Area Under Curve) values were calculated and additional statistical analysis was performed on the resulting dose-response curves.
The area under the dose-response curve (AUC) represents the survival fraction of cells in the presence of drug at each of the 10 increasing dose concentrations. There can be certain circumstances when dose-response curves of differing shapes share similar AUCs. Therefore, as a better reflection of sensitivity to drug treatment, an adjusted area under the curve (aAUC) was calculated according to the following formulas. First, local slope (Sd) at each dose point was calculated based on Sd=(CId-1−CId)/unit of dose. Second, slope weight (Wd) at each dose point was calculated based on Wd=1−Sd. Finally, aAUC was computed based on aAUC=Σ Wd CId, where d=1 . . . 10. Mi Z, et al. (2008) Anticancer Res 28: 1733-1740.
Adjusted areas under the curve (aAUC) were calculated for each dose-response curve. The assay results were classified as responsive (R; assay score≦5.34648.0), intermediate responsive (IR; assay score 5.3465-6.5372) or non-responsive (NR; assay score≧6.5373).

[2] = test system: A549 cells; experiment: ChemoFx live cell chemoresponse assay on A549 (wash-before-treatment, folic acid supplementation); format: cell-based, human
Description: The ChemoFx™ live cell chemoresponse assay was performed on 65 patient specimens and the cell line A549. The cells were treated with a 10-dose range of pemetrexed for 72 hours before DAPI-nuclear staining and counting. AUC (Area Under Curve) values were calculated and additional statistical analysis was performed on the resulting dose-response curves. Folic Acid supplementation experiments were conducted. Pure folic acid was purchased from Sigma Aldrich, filtered, and prepared in a 100× concentration using RPMI media. The concentrate was added to RPMI media so that the final concentration of folic acid ranged between 1.5 mg/L and 500 mg/L. The cell line A549 was plated and treated according to the ChemoFx™ assay in the RPMI media containing increasing concentrations of folic acid. A control was also plated and treated at the same time. In order to determine whether or not removal of excess folic acid from growth media affected the outcome of the chemoresponse assay, a Wash Before Treatment (WBT) step was included. Briefly, A549 cells were plated in 5% BEGM growth media and were cultured to the desired confluence. The growth media was then aspirated and the cells washed with 70 μL of PBS. After removal of the PBS, 70 μL of 5% RPMI+EGF (EGF concentration of 10 ng/mL) treatment media was added to the each treatment well. Following the addition of the treatment media, 30 μL of the treatment media was removed leaving a total volume of 40 μL of treatment media per well. Pemetrexed was then prepared using serial dilutions in the treatment media and was applied to the treatment wells. All aspirations and additions of media and wash solutions was performed by an automated liquid handler to avoid harsh pipetting that might dissociate/disrupt cells.

[3] = test system: non-small cell lung carcinoma (NSCLC); conditions: second-line treatment in the clinical setting, NSCLC patients (Hanna 2004); cited from earlier work

Compound: Nc1nc2[nH]cc(CCc3ccc(C(=O)N[C@@H](CCC(=O)O)C(=O)O)cc3)c2c(=O)[nH]1 [pemetrexed, Pemetrexed]
- share of primary cultures with intermediate response (IR) ([1]; 2.24 nM to 586 μM, aAUC assay score 5.3465-6.5372): 9.2%
- share of primary cultures non-responsive (NR) ([1]; 2.24 nM to 586 μM, aAUC assay score ≧6.5373): 84.6%
- share of primary cultures that responded (responsive, R) ([1]; ten serial dilutions 2.24 nM to 586 μM, aAUC assay score ≦5.34648.0): 6.2%
- effect of folic acid on observed activity ([2]; A549, RPMI media with folic acid 1.5 mg/L to 500 mg/L, FIG. 3): could be reversed with folic acid treatment
- effect of wash-before-treatment (WBT) protocol on in vitro response ([2]; A549, with WBT, 5% BEGM to 5% RPMI+EGF, FIG. 1): significantly improved the in vitro response
- response curve without WBT ([2]; A549, without WBT (5% BEGM control)): a typical ChemoFx™ response curve was not obtained
- sensitivity of A549 to treatment ([2]; A549 cultured in 5% BEGM, treated in 5% RPMI+EGF, FIG. 1): good positive control for sensitivity
- objective response rate (overall population response) [3]: 9.1%
